Patent US20030129134A1, “Method of monitoring neuroprotective treatment” (Pfizer Inc., priority 2001, published 2003)

Tested on: S-100b
Assay: Serum S-100b levels in patients with severe contusive-type head trauma treated by constant infusion
Assay type: in vivo, human
Conditions: constant infusion for 72 hours, serum samples out to 120 hours post-infusion, luminometric immunoassay
Excerpt: Levels of S-100b can be measured in a biological sample of a patient's blood or CSF using a commercially available immunoradiometric assay or luminometric immunoassay kit such as those available from Byk-Sangtec Diagnostica GmbH & Co. (Dietzenbach, Germany), which are based on a two-site immunoluminometric sandwich assay using the commercially available LIAISON® Sangtec® S-100 assay system. In this assay system, paramagnetic particles are coated with two anti-S100b monoclonal antibodies directed to different epitopes, and a secondary anti-S100b monoclonal antibody labeled with an isoluminol derivative is provided as detection antibody. The paramagnetic particles, assay buffer, and biological sample are first incubated and unbound material is removed by a wash cycle. […] Subsequently, starter reagents that activate the chemoluminscent reaction are added and the S-100b concentration is determined via the chemiluminescence reaction induced by the previously added reagents. The light signal is measured in relative light units (RLUs) and is directly proportional to the amount of S-100b protein in the sample. […]
S-100b levels were measured in the serum of patients suffering from severe contusive-type head trauma. […] S-100b levels were determined using a commercially available luminometric immunoassay kit from Byk-Sangtec Diagnostica GmbH & Co. (Dietzenbach, Germany).

C[C@@H]([C@@H](O)c1ccc(O)cc1)N1CCC(O)(c2ccccc2)CC1 [CP-101,606, (1S,2S)-1-(4-hydroxyphenyl)-2-(4-hydroxy-4-phenylpiperidin-1-yl)-1-propanol]
S-100b levels in serum compared to the placebo group: significantly reduced
